Measured values as given in patent publication US9540343B2 (Gilead Sciences, Inc., priority 2011, dated 2017).

Tests used:
[1] = tested on: HIV-IIIb; assay: Test A: Antiviral assay in MT4 cells; type: cell-based, HIV-1; conditions: Human immunodeficiency virus 1, IIIB, MT4, 120 h, read-out: % inhibition at 2 μM, percent inhibition of virus-induced cell killing, from dose response curve at 2 uM drug; MT-4 cells infected with HIV-IIIb, 5 days, CellTiter-Glo
[2] = in vitro; conditions: human, uninfected MT-4 cells, CC50 (nM), same protocol as Test A, CellTiter-Glo
Procedure, shortened: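 Cytoprotection read-out: CellTiter-Glo chemiluminescence after 5 days at 37 °C of HIV-IIIb-infected MT-4 cells (m.o.i. 0.003) with compound in 10-point 3-fold dilutions, quadruplicate, 10% FBS. Cytotoxicity (CC50) measured identically without virus.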

Row | SMILES | inhibition at 2 µM [1] | CC50 at 5 days [2]
1 | NC(=O)c1cc(-c2cccnc2[C@H](Cc2cc(F)cc(F)c2)NC(=O)Cn2nc(C(F)F)c3c2C2CC2CC3(F)F)ccc1F (stereo partly drawn) [Example 304C, 5-(2-((1S)-1-(2-(3-(difluoromethyl)-4,4-difluoro-5,5a,6,6a-tetrahydrocyclopropa[g]indazol-1(4H)-yl)acetamido)-2-(3,5-difluorophenyl)ethyl)pyridin-3-yl)-2-fluorobenzamide] | 94% | 1700 nM
2 | O=C(Cc1c[nH]c2ccc(F)cc12)N[C@@H](Cc1cc(F)cc(F)c1)c1ncncc1-c1ccc(Cl)cc1 [Example 365, (S)—N-(1-(5-(4-chlorophenyl)pyrimidin-4-yl)-2-(3,5-difluorophenyl)ethyl)-2-(5-fluoro-1H-indol-3-yl)acetamide] | 86% | 12500 nM
3 | CC(C)(C)OC(=O)N1C(=O)CC[C@H]1C(=O)N[C@@H](Cc1cc(F)cc(F)c1)c1ncccc1-c1ccc(F)c(C(N)=O)c1 [Example 140, (S)-tert-butyl 2-((S)-1-(3-(3-carbamoyl-4-fluorophenyl)pyridin-2-yl)-2-(3,5-difluorophenyl)ethylcarbamoyl)-5-oxopyrrolidine-1-carboxylate] | 0% | > 53000 nM
4 | Cc1ccccc1-c1cccnc1[C@@H](Cc1ccccc1)NC(=O)Cn1nc(C(F)(F)F)c2c1CCCC2 [Example 16, (R)—N-(2-phenyl-1-(3-o-tolylpyridin-2-yl)ethyl)-2-(3-(trifluoromethyl)-4,5,6,7-tetrahydro-1H-indazol-1-yl)acetamide] | 0% | 14000 nM
5 | O=C(Cc1c[nH]c2ccc(O)cc12)N[C@@H](Cc1cc(F)cc(F)c1)c1ncccc1C#CC1CC1 [Example 53, (S)—N-(1-(3-(cyclopropylethynyl)pyridin-2-yl)-2-(3,5-difluorophenyl)ethyl)-2-(5-hydroxy-1H-indol-3-yl)acetamide] | 33% | 28300 nM
6 | Cc1cc2[nH]cc(CC(=O)N[C@@H](Cc3cc(F)cc(F)c3)c3ncccc3-c3cccc(C(N)=O)c3)c2cc1OCc1ccccc1 [Example 536I, (S)-3-(2-(1-(2-(5-(benzyloxy)-6-methyl-1H-indol-3-yl)acetamido)-2-(3,5-difluorophenyl)ethyl)pyridin-3-yl)benzamide] | 12% | 8600 nM
7 | NC(=O)c1cccc(-c2cccnc2[C@H](Cc2cc(F)cc(F)c2)NC(=O)Cn2ccc3cnc(N)nc32)c1 [Example 226C, (S)-3-(2-(1-(2-(2-amino-7H-pyrrolo[2,3-d]pyrimidin-7-yl)acetamido)-2-(3,5-difluorophenyl)ethyl)pyridin-3-yl)benzamide] | 0% | > 53000 nM
8 | O=C(Cc1c[nH]c2ccc(F)cc12)N[C@@H](Cc1cc(F)cc(F)c1)c1ncccc1-c1ccccc1-c1ccccc1 [Example 398, (S)—N-(1-(3-(biphenyl-2-yl)pyridin-2-yl)-2-(3,5-difluorophenyl)ethyl)-2-(5-fluoro-1H-indol-3-yl)acetamide] | 2% | 9830 nM
9 | NC(=O)c1cccc(-c2cccnc2[C@H](Cc2cc(F)cc(F)c2)NC(=O)Cc2c[nH]c3cc(F)ccc23)c1 [Example 86, (S)-3-(2-(2-(3,5-difluorophenyl)-1-(2-(6-fluoro-1H-indol-3-yl)acetamido)ethyl)pyridin-3-yl)benzamide] | 97% | 21400 nM
10 | NC(=O)c1cc(-c2cccnc2[C@H](Cc2cc(F)cc(F)c2)NC(=O)Cn2nc(C(F)(F)F)c3c2C(F)(F)CCC3=O)ccc1F [Example 340B, (S)-5-(2-(1-(2-(7,7-difluoro-4-oxo-3-(trifluoromethyl)-4,5,6,7-tetrahydro-1H-indazol-1-yl)acetamido)-2-(3,5-difluorophenyl)ethyl)pyridin-3-yl)-2-fluorobenzamide] | 32% | 32800 nM
11 | NC(=O)c1cc(-c2cccnc2[C@H](Cc2cc(F)cc(F)c2)NC(=O)Cn2nc(C(F)(F)F)cc2C2CCCC2)ccc1F [Example 168B, (S)-5-(2-(1-(2-(5-cyclopentyl-3-(trifluoromethyl)-1H-pyrazol-1-yl)acetamido)-2-(3,5-difluorophenyl)ethyl)pyridin-3-yl)-2-fluorobenzamide] | 21% | 11100 nM
12 | O=C(Cn1nc(C(F)F)c2c1C(F)(F)C1CC21)N[C@@H](Cc1cc(F)cc(F)c1)c1ncncc1-c1cccc2[nH]cnc12 (stereo partly drawn) [Example 127C, N—((S)-1-(5-(1H-benzo[d]imidazol-4-yl)pyrimidin-4-yl)-2-(3,5-difluorophenyl)ethyl)-2-(3-(difluoromethyl)-5,5-difluoro-3b,4,4a,5-tetrahydro-1H-cyclopropa[3,4]cyclopenta[1,2-c]pyrazol-1-yl)acetamide] | 97% | 31900 nM
13 | NC(=O)c1cccc(-c2cccnc2[C@H](Cc2cc(F)cc(F)c2)NC(=O)Cc2ccccn2)c1 [Example 569, (S)-3-(2-(2-(3,5-difluorophenyl)-1-(2-(pyridin-2-yl)acetamido)ethyl)pyridin-3-yl)benzamide] | 11% | > 53000 nM
14 | NC(=O)c1cc(-c2cccnc2[C@H](Cc2cc(F)cc(F)c2)NC(=O)Cn2nc(C(F)(F)F)c3c2C(=O)CC3)ccc1F [Example 281C, (S)-5-(2-(2-(3,5-difluorophenyl)-1-(2-(6-oxo-3-(trifluoromethyl)-5,6-dihydrocyclopenta[c]pyrazol-1(4H)-yl)acetamido)ethyl)pyridin-3-yl)-2-fluorobenzamide] | 5% | 28300 nM
15 | Cc1c(Br)c(C(F)(F)F)nn1CC(=O)N[C@@H](Cc1cc(F)cc(F)c1)c1ncccc1-c1ccc(F)c(C(N)=O)c1 [Example 275, (S)-5-(2-(1-(2-(4-bromo-5-methyl-3-(trifluoromethyl)-1H-pyrazol-1-yl)acetamido)-2-(3,5-difluorophenyl)ethyl)pyridin-3-yl)-2-fluorobenzamide] | 53% | 16900 nM
16 | NC(=O)c1cc(-c2cccnc2[C@H](Cc2cc(F)cc(F)c2)NC(=O)Cn2cc(C3=CCCC3)c(C(F)(F)F)n2)ccc1F [Example 355, (S)-5-(2-(1-(2-(4-cyclopentenyl-3-(trifluoromethyl)-1H-pyrazol-1-yl)acetamido)-2-(3,5-difluorophenyl)ethyl)pyridin-3-yl)-2-fluorobenzamide] | 1% | 9460 nM
17 | NC(=O)c1cc(-c2cccnc2[C@H](Cc2cc(F)cc(F)c2)NC(=O)Cn2ccc3cnccc32)ccc1F [Example 514, (S)-5-(2-(1-(2-(1H-pyrrolo[3,2-c]pyridin-1-yl)acetamido)-2-(3,5-difluorophenyl)ethyl)pyridin-3-yl)-2-fluorobenzamide] | 3% | > 46100 nM
18 | O=C(Cc1c[nH]c2ccc(O)cc12)N[C@@H](Cc1cc(F)cc(F)c1)c1ncccc1-c1cccc(-c2nnn[nH]2)c1 [Example 49] | 0% | 562 nM
19 | O=C(Cc1c[nH]c2ccc(=O)[nH]c12)N[C@@H](Cc1cc(F)cc(F)c1)c1ncncc1-c1ccc(Cl)cc1 [Example 331B, (S)—N-(1-(5-(4-chlorophenyl)pyrimidin-4-yl)-2-(3,5-difluorophenyl)ethyl)-2-(5-oxo-4,5-dihydro-1H-pyrrolo[3,2-b]pyridin-3-yl)acetamide] | 99% | 43100 nM
20 | Cc1nn(CC(=O)N[C@@H](Cc2cc(F)cc(F)c2)c2ncccc2-c2cccc(C(N)=O)c2)c(C)c1C [Example 506, (S)-3-(2-(2-(3,5-difluorophenyl)-1-(2-(3,4,5-trimethyl-1H-pyrazol-1-yl)acetamido)ethyl)pyridin-3-yl)benzamide] | 32% | > 53000 nM
21 | NC(=O)c1cc(-c2cccnc2[C@H](Cc2cc(F)cc(F)c2)NC(=O)Cn2cc(C3=CCCCC3)c(C(F)(F)F)n2)ccc1F [Example 460, (S)-5-(2-(1-(2-(4-cyclohexenyl-3-(trifluoromethyl)-1H-pyrazol-1-yl)acetamido)-2-(3,5-difluorophenyl)ethyl)pyridin-3-yl)-2-fluorobenzamide] | 0% | 8970 nM
22 | NC(=O)c1cc(-c2cccnc2[C@H](Cc2cc(F)cc(F)c2)NC(=O)Cn2nc(-n3cccn3)ccc2=O)ccc1F [Example 147, (S)-5-(2-(2-(3,5-difluorophenyl)-1-(2-(6-oxo-3-(1H-pyrazol-1-yl)pyridazin-1(6H)-yl)acetamido)ethyl)pyridin-3-yl)-2-fluorobenzamide] | 10% | > 53200 nM
23 | NC(=O)c1cc(-c2cccnc2C(Cc2cc(F)cc(F)c2)NC(=O)Cn2nc(C(F)F)c3c2C2CC2CC3)ccc1F (stereo not shown) [Example 392, 5-(2-(1-(2-(3-(difluoromethyl)-5,5a,6,6a-tetrahydrocyclopropa[g]indazol-1(4H)-yl)acetamido)-2-(3,5-difluorophenyl)ethyl)pyridin-3-yl)-2-fluorobenzamide] | 105% | 19100 nM
24 | COc1ccc(-c2cccnc2C(Cc2cc(F)cc(F)c2)NC(=O)Cc2c[nH]c3ccc(O)cc23)c(C)c1 (stereo not shown) [Example 5, N-(2-(3,5-difluorophenyl)-1-(3-(4-methoxy-2-methylphenyl)pyridin-2-yl)ethyl)-2-(5-hydroxy-1H-indol-3-yl)acetamide] | 76% | 32700 nM
25 | C=Cc1cn(CC(=O)N[C@@H](Cc2cc(F)cc(F)c2)c2ncccc2-c2ccc(F)c(C(N)=O)c2)nc1C(F)(F)F [Example 297, (S)-5-(2-(2-(3,5-difluorophenyl)-1-(2-(3-(trifluoromethyl)-4-vinyl-1H-pyrazol-1-yl)acetamido)ethyl)pyridin-3-yl)-2-fluorobenzamide] | 14% | 23300 nM
26 | CCC(C(=O)N[C@@H](Cc1cc(F)cc(F)c1)c1ncccc1-c1ccc(F)c(C(N)=O)c1)n1nc(C(F)F)cc1C(F)F (single isomer, unassigned) [Example 483D] | 19% | 26200 nM
